For series [1], the target named is T1, recombinant human baculovirus-expressed GST-tagged FASN (Homo sapiens, UniProt P49327).
T1 construct: GST
Put plainly: FASN enzyme activity assay, fluorescence-based detection of CoA with CPM. The format is biochemical. To be noted: 5 nM FASN, 150 μM NADPH, 10 μM acetyl-CoA, 25 μM malonyl-CoA, 90 minutes incubation; read-out: IC50 data for Compounds of Formulae I-V/V(a): Activity. The procedure, abridged: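 CoA product reacted with thiol-reactive CPM (diluted to 50 μM in 70% ethanol), read at 390/530 nm after 30 min. Preceding reaction: 90 min, 5 nM recombinant GST-FASN, 150 μM NADPH, 10 μM acetyl-CoA, 25 μM malonyl-CoA, pH 7.5 HEPES, 0.5% DMSO. IC50s fitted by nonlinear sigmoidal regression.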

Each structure is given as a SMILES string. Where a name gives a salt, the structure may show the parent alone.

The source of these data is US9902696B2, “1,4-substituted piperidine derivatives” (Cephalon, Inc., priority 2015, dated 2018).

T1 sequence (P49327 whole entry): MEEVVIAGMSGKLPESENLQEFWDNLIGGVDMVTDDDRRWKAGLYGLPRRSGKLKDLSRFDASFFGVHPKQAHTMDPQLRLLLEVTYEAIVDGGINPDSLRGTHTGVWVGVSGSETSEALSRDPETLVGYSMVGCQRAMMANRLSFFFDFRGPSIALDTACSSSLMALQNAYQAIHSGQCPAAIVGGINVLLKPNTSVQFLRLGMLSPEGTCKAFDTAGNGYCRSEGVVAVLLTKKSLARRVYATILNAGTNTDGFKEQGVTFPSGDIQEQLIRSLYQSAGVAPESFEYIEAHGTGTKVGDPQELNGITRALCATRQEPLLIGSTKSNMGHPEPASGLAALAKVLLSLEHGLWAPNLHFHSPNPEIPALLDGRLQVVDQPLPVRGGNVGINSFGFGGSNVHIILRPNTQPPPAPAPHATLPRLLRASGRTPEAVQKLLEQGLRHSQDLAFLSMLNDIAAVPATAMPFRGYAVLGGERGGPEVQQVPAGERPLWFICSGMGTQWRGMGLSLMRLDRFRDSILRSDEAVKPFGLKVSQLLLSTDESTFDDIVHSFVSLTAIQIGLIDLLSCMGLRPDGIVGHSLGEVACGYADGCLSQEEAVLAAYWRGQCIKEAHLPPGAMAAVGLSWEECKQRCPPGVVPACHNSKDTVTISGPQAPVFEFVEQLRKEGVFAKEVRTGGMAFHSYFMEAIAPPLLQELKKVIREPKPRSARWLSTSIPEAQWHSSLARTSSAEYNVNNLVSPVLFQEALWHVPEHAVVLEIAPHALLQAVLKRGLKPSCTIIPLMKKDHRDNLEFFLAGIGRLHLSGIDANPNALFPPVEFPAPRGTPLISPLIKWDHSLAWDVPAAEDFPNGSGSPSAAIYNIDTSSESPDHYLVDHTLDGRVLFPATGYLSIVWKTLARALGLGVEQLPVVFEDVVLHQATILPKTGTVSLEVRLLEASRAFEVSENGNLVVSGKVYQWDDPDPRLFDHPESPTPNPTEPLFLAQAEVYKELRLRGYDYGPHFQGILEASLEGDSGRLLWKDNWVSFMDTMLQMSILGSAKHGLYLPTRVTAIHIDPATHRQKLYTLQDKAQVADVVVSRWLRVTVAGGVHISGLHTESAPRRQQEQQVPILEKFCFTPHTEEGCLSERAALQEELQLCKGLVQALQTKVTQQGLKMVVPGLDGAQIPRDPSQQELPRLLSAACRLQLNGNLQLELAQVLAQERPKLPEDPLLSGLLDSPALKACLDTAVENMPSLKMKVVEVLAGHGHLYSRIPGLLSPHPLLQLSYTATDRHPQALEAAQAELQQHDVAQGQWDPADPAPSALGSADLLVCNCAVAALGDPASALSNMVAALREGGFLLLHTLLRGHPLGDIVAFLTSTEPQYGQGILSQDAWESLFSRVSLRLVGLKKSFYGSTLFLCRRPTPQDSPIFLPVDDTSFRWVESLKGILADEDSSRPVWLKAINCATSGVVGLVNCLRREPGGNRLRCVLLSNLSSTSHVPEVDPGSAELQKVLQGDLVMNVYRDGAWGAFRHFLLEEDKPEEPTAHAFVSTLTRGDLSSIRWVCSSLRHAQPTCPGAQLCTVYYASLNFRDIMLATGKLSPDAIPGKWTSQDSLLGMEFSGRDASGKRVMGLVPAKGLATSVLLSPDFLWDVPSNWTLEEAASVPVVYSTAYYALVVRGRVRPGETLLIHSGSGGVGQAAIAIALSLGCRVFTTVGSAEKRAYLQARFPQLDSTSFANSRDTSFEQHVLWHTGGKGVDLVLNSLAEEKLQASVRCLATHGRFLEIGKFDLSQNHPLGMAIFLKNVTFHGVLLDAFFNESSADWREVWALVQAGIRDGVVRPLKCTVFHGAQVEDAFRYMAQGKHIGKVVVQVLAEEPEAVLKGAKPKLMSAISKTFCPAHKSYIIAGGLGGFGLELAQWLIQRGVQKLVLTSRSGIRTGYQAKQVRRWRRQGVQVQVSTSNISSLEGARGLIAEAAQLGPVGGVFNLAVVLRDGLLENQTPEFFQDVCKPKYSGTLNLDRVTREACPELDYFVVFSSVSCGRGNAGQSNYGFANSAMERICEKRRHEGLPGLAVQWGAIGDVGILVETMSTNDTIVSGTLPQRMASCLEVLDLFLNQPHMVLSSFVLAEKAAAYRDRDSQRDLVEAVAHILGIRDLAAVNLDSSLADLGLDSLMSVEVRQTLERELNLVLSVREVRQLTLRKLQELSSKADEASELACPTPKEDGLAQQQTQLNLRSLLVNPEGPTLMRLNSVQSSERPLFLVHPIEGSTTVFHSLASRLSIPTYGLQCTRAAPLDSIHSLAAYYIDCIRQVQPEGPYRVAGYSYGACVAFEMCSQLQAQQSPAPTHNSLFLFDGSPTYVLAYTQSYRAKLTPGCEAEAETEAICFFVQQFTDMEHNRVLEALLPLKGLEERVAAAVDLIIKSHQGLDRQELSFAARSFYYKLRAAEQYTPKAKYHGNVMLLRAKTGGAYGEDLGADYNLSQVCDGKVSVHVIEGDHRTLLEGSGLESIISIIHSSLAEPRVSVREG

Turning to `CCC(=O)N1CC[C@@H](Oc2ccc(-c3cnc4ccccc4c3)cc2)C1` (as salt: HCl) [Example 345, (R)-1-(3-(4-(quinolin-3-yl)phenoxy)pyrrolidin-1-yl)propan-1-one, HCl], the melting point came to 51 °C.
Still for that read-out and setting: as for `CCC(=O)N1CCC(Sc2ccc(-c3ccc4cccnc4c3)cc2)CC1` (as salt: HCl) [Example 516, 1-(4-((4-(quinolin-7-yl)phenyl)thio)piperidin-1-yl)propan-1-one, HCl], the figure is 188 °C; as for `CCC(=O)N1CCC(Sc2ccc(-c3ccc4cnccc4c3)cc2)CC1` (as salt: HCl) [Example 517, 1-(4-((4-(Isoquinolin-6-yl)phenyl)thio)piperidin-1-yl)propan-1-one, HCl], 222 °C.
Same read-out and setting: as for `CCC(=O)N1CCC(Sc2ccc(-c3cnc4ccccc4c3)cc2)CC1` (as salt: HCl) [Example 518, 1-(4-((4-(Quinolin-3-yl)phenyl)thio)piperidin-1-yl)propan-1-one, HCl], the figure is 70 °C; as for `CCC(=O)N1CCC(Sc2ccc(-c3cncc4ccccc34)cc2)CC1` (as salt: HCl) [Example 519, 1-(4-((4-(Isoquinolin-4-yl)phenyl)thio)piperidin-1-yl)propan-1-one, HCl], 88 °C.
On to `CC(C)C(=O)N1CCC(Sc2ccc(-c3ccc4cccnc4c3)cc2)CC1` (as salt: HCl) [Example 520], for which the melting point was determined as 120 °C.
Same read-out and setting: for `CC(C)C(=O)N1CCC(Sc2ccc(-c3ccc4cnccc4c3)cc2)CC1` (as salt: HCl) [Example 521, 1-(4-((4-(Isoquinolin-6-yl)phenyl)thio)piperidin-1-yl)-2-methylpropan-1-one HCl] the value was 228 °C; for `CC(C)C(=O)N1CCC(Sc2ccc(-c3cnc4ccccc4c3)cc2)CC1` (as salt: HCl) [Example 522, 2-Methyl-1-(4-((4-(quinolin-3-yl)phenyl)thio)piperidin-1-yl)propan-1-one, HCl], 130 °C; for `CC(C)C(=O)N1CCC(Sc2ccc(-c3cncc4ccccc34)cc2)CC1` (as salt: HCl) [Example 523, 1-(4-((4-(Isoquinolin-4-yl)phenyl)thio)piperidin-1-yl)-2-methylpropan-1-one HCl], 120 °C.
`CCC(=O)N1CCC(Oc2ncc(-c3cnc4ccccc4c3)cn2)CC1` [Example 143, 1-[4-(5-Quinolin-3-yl-pyrimidin-2-yloxy)-piperidin-1-yl]-propan-1-one] had a melting point of 162 to 166 °C. Further, the IC50 in series [1] is 1000 to 10000 nM.
`CCC(=O)N1CCC(Oc2ccc(-c3cnc4ccccc4c3)cc2Cl)CC1` [Example 191, 1-[4-(2-Chloro-4-quinolin-3-yl-phenoxy)-piperidin-1-yl]-propan-1-one] registered a melting point of 183 to 185 °C. Moreover, the IC50 in series [1] was 1000 to 10000 nM.
Taken in the same sequence, the figures for `CCC(=O)N1CC(Oc2ccc(-c3cnc4ccccc4c3)cc2)C1` [Example 338, 1-(3-(4-(Quinolin-3-yl)phenoxy)azetidin-1-yl)propan-1-one] were 172 °C and 100 to 999 nM.
Taken in the same sequence, the figures for `CC(C)C(=O)N1CC(Oc2ccc(-c3cnc4ccccc4c3)cc2)C1` [Example 339, 2-Methyl-1-(3-(4-(quinolin-3-yl)phenoxy)azetidin-1-yl)propan-1-one] were 162 °C and 1000 to 10000 nM.
`O=C(C1CC1)N1CC(Oc2ccc(-c3cnc4ccccc4c3)cc2)C1` [Example 340, Cyclopropyl(3-(4-(quinolin-3-yl)phenoxy)azetidin-1-yl)methanone] returned a melting point of 187 °C. Further, the IC50 in series [1] fell in the range of 1000 to 10000 nM.
With `CC(C)CC(=O)N1CC(Oc2ccc(-c3cnc4ccccc4c3)cc2)C1` [Example 341, 3-Methyl-1-(3-(4-(quinolin-3-yl)phenoxy)azetidin-1-yl)butan-1-one], the melting point worked out at 201 °C. Further, the IC50 in series [1] fell in the range of 1000 to 10000 nM.
